The test system of one data set is IL-12 production. Briefly: IL-12 production in LPS-stimulated RAW264.7 cells (ELISA). In kind it is cell-based. Particulars: 100 ng/mL LPS, 21 h; for IL-12: compound 0.5 mM. The protocol: The effect of selected compounds on IL-12 production was undertaken in RAW264.7 (macrophage-like) cells. RAW264.7 cells were cultured with 100 ng/mL of LPS in presence or absence of compounds for 21 h in a humidified atmosphere of 95% air-5% carbon dioxide at 37° C. IL-12 concentration in the culture medium was measured using the IL-12 ELISA according to the manufacturer (BD Biosciences) recommendations. […] Compounds have no effect on IL-12 production in the absence of LPS.

For another data set, the system named is CTGF production. The experiment in a line: Inhibition of TGF-induced CTGF production in NHDF (ELISA). In kind it is cell-based. Particulars: Homo sapiens, 10 ng/mL TGF-β, 48 h. As to the method:
The effect of selected compounds on CTGF production was undertaken in normal human dermal fibroblast (NHDF) or human mesangial cells. Cells were cultured in DMEM (0.5% FBS) with or without 10 ng/mL of TGF-β for 48 h in a humidified atmosphere of 95% air-5% carbon dioxide at 37° C. CTGF measurement in the culture medium was measured using the CTGF ELISA according to the manufacturer (Prepotech) recommendations.
In general terms: In an ELISA, binding on a coated surface is turned into a signal by an enzyme label.

In the next data set the test system is P815 mastocytoma. The experiment in a line: Primary P815 mastocytoma tumor growth in mice. In kind it is in vivo. From the text: The syngeneic tumor P815 is a DBA/2 (H-2^d)-derived mastocytoma obtained from ATCC (TIB64). […] Mice were sacrificed around day 23 (depending on the experiment). […] Tumors were palpable, in general, 3-5 days post-inoculation.
A further data set deals with P815 liver metastasis. Briefly: P815 liver metastasis in mice. In kind it is in vivo. The protocol: The syngeneic tumor P815 is a DBA/2 (H-2^d)-derived mastocytoma obtained from ATCC (TIB64). P815 cells were grown in DMEM containing 10% fetal bovine serum. At day 0, 50 μL of 5×10^5 viable P815 cells were subcutaneously injected to produce localized tumors in 6- to 8-week old DBA/2 mice. The animals were then serially monitored by manual palpation for evidence of tumor. […] Mice were sacrificed around day 23 (depending on the experiment). Serial tumor volume was obtained by bi-dimensional diameter measurements with calipers, using the formula 0.4 (a×b^2) where “a” was the major tumor diameter and “b” the minor perpendicular diameter. Tumors were palpable, in general, 3-5 days post-inoculation.
It is known that P815 cells have the capacity to metastasize to the liver.

Another data set relates to HK-2 cells. Briefly: TGF-β induced epithelial to mesenchymal transition in HK-2 cells (real-time PCR of E-cadherin, CTGF, collagen 1). In kind it is cell-based, human. As to the method: FIG. 20 is a bar graph showing the effect of Compound XVII on E-cadherin in normal HK-2 cells and in TGF-β induced EMT cells. Real-time PCR using human E-cadherin TaqMan® Gene Expression Assay normalized to human GAPDH endogenous control; reference is […] cells 24 h (RQ=1). *means p<0.05, and ** means p<0.01 (t-test).
FIG. 21 is a bar graph showing the effect of Compound XVII on CTGF in normal HK-2 cells and in TGF-β induced EMT cells. Real-time PCR using human CTGH TaqMan® Gene Expression Assay normalized to human GAPDH endogenous control; reference is TGF-β-treated cells 24 h (RQ=1). *means p<0.05, and ** means p<0.01 (t-test).
FIG. 22 is a bar graph showing the effect of Compound XVII on collagen 1 in normal HK-2 cells and in TGF-β induced EMT cells. Real-time PCR using human Collagen 1 TaqMan® Gene Expression Assay normalized to human GAPDH endogenous control; reference is TGF-β-treated cells 24 h (RQ=1). ** means p<0.01 (t-test).
Real-time PCR using human CTGF TaqMan® Gene Expression Assay and Collagen 1 TaqMan® Gene Expression Assay normalized to human GAPDH endogenous control; reference is TGF-β-treated cells 24 h (RQ=1).
FIG. 24 is a bar graph showing the effect of Compound I on CTGF and collagen 1 expression in normal HK-2 cells and in TGF-β induced EMT cells. Real-time PCR using human CTGF TaqMan® Gene Expression Assay and Collagen 1α1 TaqMan® Gene Expression Assay normalized to human GAPDH endogenous control; reference is TGF-β-treated cells 24 h (RQ=1). Compound I is added at 0.5 mM.
Further analysis was undertaken to determine the effect of Compoounds on EMT. The effect of Compound XVII on TGF-β induced EMT was analyzed on human epithelial […] cells (HK-2). To assess the progression of EMT, the pro-epithelial marker E-cadherin and the mesenchymal/pro-fibrotic markers CTGF and collagen 1 were assayed by quantitative real-time PCR. To determine the efficacy of Compound XVII in inhibiting TGF-β-induced EMT, verification of the ability of TGF-β to induce EMT in HK-2 cells.

Another data set deals with CT-26WT colon tumor. The experiment in a line: Primary colon CT-26WT tumor in mice. The note with it: FIG. 12 and 13; for efficacy on primary tumor CT-26 (single agent): sodium decanoate oral 200 mg/kg daily, 5-fluorouracil i.p. 40 mg/kg day 6, 13, 20, Compound XV oral. It is filed as in vivo. The protocol:
The syngeneic tumor CT-26WT (CT-26) is a colon tumor cell line obtained from ATCC (CRL-2638). CT-26 cells were grown in RPMI containing 10% fetal bovine serum. At day 0, 50 μL of 5×10^6 viable CT-26 cells were subcutaneously injected to produce localized tumors in 6- to 8-week old mice. The animals were then serially monitored by manual palpation for evidence of tumor. […] Mice were sacrificed at day 25. Serial tumor volume was obtained by bi-dimensional diameter measurements with calipers, using the formula 0.4 (a×b^2) where “a” was the major tumor diameter and “b” the minor perpendicular diameter. Tumors were palpable, in general, 3-5 days post-inoculation.

Setting [1] is: TGF-β-stimulated cells, 24 h, normalized to GAPDH, sodium decanoate and Compound I at 0.5 mM.
Where [2] appears, read: compound alone, no TGF-β, sodium decanoate and Compound I at 0.5 mM.

The source of these data is patent US9439882B2, “Compounds and compositions for the treatment of cancer” (PROMETIC BIOSCIENCES, INC., priority 2010, dated 2016).

Broadly, the melting point is the temperature, or range, at which the solid turns liquid. In general, inhibition refers to the percentage by which the read-out fell short of the control.

`CCCCOc1ccc(C(CC(=O)[O-])c2cccc(F)c2)cc1.[Na+]` (stereo not shown) yielded a melting point of 135 °C.
On to `CCCCCCCC(=O)c1ccc2c(c1)CC(C(=O)[O-])C2.[Na+]` (racemic) [Compound XIX, Sodium (RS)-5-octanoylindane-2-carboxylate], for which the “IL-12 (pg/mL)” value in the data set on IL-12 production (compound 0.05 mM) is given as 53 (at 0.05 mM) pg/mL. The inhibition at 63 µM in the data set with CTGF production (63 μM) worked out at 45%.
With `CCCCCCCC(=O)c1cccc2c1CC(C(=O)[O-])C2.[Na+]` (racemic) [Compound XLI, Sodium (RS)-4-Octanoylindane-2-Carboxylate], the “IL-12 (pg/mL)” value with IL-12 production (compound 0.1 mM) is reported as 25 (at 0.1 mM) pg/mL.
For the compound `CCCCCCCCC(Oc1ccc(C(=O)CCCCCCC)cc1)C(=O)[O-].[Na+]` (racemic) [Compound XVII, Sodium (RS)-2-[4-octanoylphenoxy]decanoate], the “IL-12 (pg/mL)” value in the data set on IL-12 production (compound 0.05 mM) was 209 (at 0.05 mM) pg/mL. In the data set with P815 mastocytoma (FIG. 17), the P815 tumor growth entry is listed as “significant reduction (p<0.05)” and the “efficacy compared with soluble acetylsalicylic acid” value is recorded as “better efficacy to the gold standard compound”. Further, testing at 7.5 µM in the data set with CTGF production (7.5 μM) gave an inhibition of 40%. Besides, the “reduction of the number of mice with liver metastasis” value in the data set with P815 liver metastasis (50 mg/kg, FIG. 18) is listed as “approximately 20%”. The “TGF-β induced EMT” value with HK-2 cells (HK-2 cells, sodium decanoate and Compound I at 0.5 mM) is “significantly inhibited”. The E-cadherin transcript expression entry in the data set with HK-2 cells (TGF-β induced EMT cells, 24 h, normalized to GAPDH, FIG. 20) is on record as “upregulation”. In addition, in the data set on HK-2 cells (setting [1]), the CTGF transcript expression result was “downregulation” and the “collagen 1 transcript expression” value is “downregulation”. Moreover, in the data set on HK-2 cells (setting [2]), the “basal expression of CTGF” value was “downregulate” and the “basal expression of collagen 1” value is recorded as “downregulate”.
Compound `CCCCCCCC(=O)c1ccc(OC(CCCCCC)C(=O)[O-])cc1.[Na+]` (racemic) [Compound XXIV, Sodium (RS)-2-[4-Octanoylphenoxy]octanoate] had a melting point of 165 to 170 °C. In the data set with IL-12 production (compound 0.02 mM), the “IL-12 (pg/mL)” value is given as 12 (at 0.02 mM) pg/mL.
The compound `CCCCCCCCC(Oc1ccc(C(=O)CCC)cc1)C(=O)[O-].[Na+]` (racemic) [Compound XXV, Sodium (RS)-2-[4-Butyrylphenoxy]decanoate] registered a melting point of 262 to 278 °C. Moreover, the “IL-12 (pg/mL)” value in the data set on IL-12 production (compound 0.04 mM) is 73 (at 0.04 mM) pg/mL.
`CCCCCCCCC(Oc1ccc(C(=O)CCCCC)cc1)C(=O)[O-].[Na+]` (racemic) [Compound XXVI, Sodium (RS)-2-[4-Hexanoylphenoxy]decanoate] registered a melting point of 275 to 280 °C. Further, the “IL-12 (pg/mL)” value in the data set on IL-12 production (compound 0.02 mM) is 54 (at 0.02 mM) pg/mL.
In the case of `O=c1[nH]cc(F)c(=O)[nH]1` [5-fluorouracil, reference compound], the “efficacy on primary tumor CT-26 (single agent)” value in the data set with CT-26WT colon tumor is “weak efficacy”.
Turning to `CCCCCc1cccc(CCC(=O)[O-])c1.[Na+]` [Compound II, Sodium salt of 3-(3-pentylphenyl)propionic acid], the “IL-12” value in the data set with IL-12 production was 351 pg/mL. In the data set with P815 mastocytoma (oral 200 mg/kg, FIG. 7 and 8), the P815 tumor growth result was “significant reduction (p<0.05)”. The same compound returned an inhibition at 100 µM with CTGF production (100 μM) of 38%.
Consider `CCCCc1cccc(CCC(=O)[O-])c1.[Na+]` [Compound III], for which, in the data set with IL-12 production, the “IL-12” value is 62 pg/mL. Also, the inhibition at 500 µM in the data set on CTGF production is 46%.
The corresponding values for `CCC/C=C/c1cccc(CC(=O)[O-])c1.[Na+]` [Compound IV, Sodium salt of E-(3-pent-1-enyl-phenyl)acetic acid] are 19 pg/mL and 34%.
Turning to `CCCCCc1cc(CC(=O)[O-])ccc1O.[Na+]` [Compound IX, Sodium 2-[4-Hydroxy-3-pentylphenyl]acetate], the melting point was 193 to 197 °C. Besides, the “IL-12” value in the data set on IL-12 production came out at 20 pg/mL.
As for `CCCCCc1cc(O)cc(CC(=O)[O-])c1.[Na+]` [Compound VIII, Sodium salt of [3-Hydroxy-5-pentylphenyl]acetic acid], in the data set with IL-12 production, the “IL-12” value was 17 pg/mL. In the data set with CTGF production, the inhibition at 200 µM came out at 47%.
Consider `CCCC/C=C/c1cccc(CC(=O)[O-])c1.[Na+]` [Compound VI], for which the “IL-12” value with IL-12 production amounted to 53 pg/mL.
`CCCCCc1ccc(C(=O)[O-])cc1.[Na+]` [Compound XI, Sodium salt of 4-pentylbenzoic acid]: the “IL-12” value in the data set on IL-12 production is 78 pg/mL. Further, testing at 500 µM with CTGF production gave an inhibition of 28%.
Take `CCCCCCc1cccc(C(=O)[O-])c1.[Na+]` [Compound XIII, Sodium salt of 3-hexylbenzoate]: in the data set with IL-12 production (compound 0.125 mM), the “IL-12 (pg/mL)” value was 18 (at 0.125 mM) pg/mL. In addition, the inhibition at 125 µM in the data set on CTGF production (125 μM) was 29%.
`O=C([O-])CCc1ccc(NCc2cccc(Oc3ccccc3)c2)cc1.[Na+]` [Compound XV, 3-(4-(3-phenoxy-benzylamino)phenyl) propionic acid]: in the data set on IL-12 production, the “IL-12” value is on record as 37 pg/mL. The P815 tumor growth result in the data set on P815 mastocytoma (oral 200 mg/kg, FIG. 7 and 8) is “significant reduction (p<0.05)”. In addition, in the data set on CT-26WT colon tumor, the “efficacy on primary tumor CT-26 (single agent)” value is reported as “weak efficacy”. In the data set with CTGF production (20 μM), this compound had an inhibition at 20 µM of 22%. In the data set on P815 liver metastasis (oral 200 mg/kg, p<0.05, FIG. 9 and 10), the “reduction of mice with liver metastasis” value amounted to 50%.
As to `CCCCCCCC(=O)c1cccc(C(=O)[O-])c1.[Na+]` [Compound XVIII, Sodium 3-octanoylbenzoate], the “IL-12” value in the data set on IL-12 production is given as 1099 pg/mL. Besides, in the data set with CTGF production, the inhibition at 200 µM worked out at 49%.
In the case of sodium decanoate and 5-fluorouracil, the “tumor growth T/C” value with CT-26WT colon tumor (combination, from day 16 to day 26) is “approximately 40%”.
